# Reference: patent US5506239A, “Carbostyril derivative and platelets aggregation inhibitory agent” (Otsuka Pharmaceutical Co., Ltd., priority 1991, dated 1996)
# What was measured:
# [1] = test system: platelets; experiment: Platelets aggregation inhibitory activity (method of Born et al.), ADP-induced, human PRP (Pharmacological Test I); assay type: cell-based, man; settings: 7.5 μM ADP, 37° C., read-out: IC50 ADP (50% platelets aggregation inhibition)
# Procedure: (§1) The platelets aggregation inhibitory activity of each test compound was measured by the method of Born et al. [J. Physiol., London, 162, 67 (1962)], using Platelets Aggregation Tracer manufactured by Nikoh Bioscience Co., Ltd.
# (§2) 9 volumes of a blood collected from person was mixed with 1 volume of a 3.8% aqueous sodium citrate solution. Part of the mixture was subjected to centrifugation at 1,100 rpm for 10 minutes to obtain a platelet rich plasma (PRP). The remainder of the mixture was also subjected to centrifugation at 3,000 rpm for 10 minutes to obtain a platelet poor plasma (PPP).
# (§3) The number of platelets in the PRP was measured using Coulter Counter manufactured by Coulter Electronics Inc. Then, the PRP was diluted with the PPP so that the number of platelets in the dilution became 300,000, whereby a PRP solution was prepared.
# (§4) 200 μl of this PRP solution and 2 ml of a solution containing a test compound at a given concentration were placed in an aggregation measurement cell and heated at 37° C. for 1 minute. Thereto was added 20 μl of adenosine diphosphate (ADP manufactured by Sigma Co.) or a collagen suspension (Collagen Reagent manufactured by Horm, Hormon-Chemie, Gmbh) to induce aggregation of platelets. The resulting mixture in the cell was measured for change of transmittance, after which a platelets aggregation curve was prepared. Incidentaly, the concentration of ADP or collagen was selected so that the final Concentration became 7.5 μM or 20 μg/ml.
# (§5) Using the platelets aggregation curve, there was calculated a maximum aggregation rate (MAR) of platelets using the followoing formula: […]
# (§6) wherein a represents a transmittance of the PRP obtained in the same manner; c represents a transmittance of the PPP obtained in the same manner; and b represents a transmittance at the maximum change, of the PRP solution containng the test compound and the aggregation inducer.
# (§7) A MAR was also calculated as above, for the control containing no test compound.
# (§8) Using the above two MARs, there were calculated platelets aggregation inhibitions (%) of each test compound at various concentrations using the following formula.
# (§9) Inhibition=[1-(MAR of PRP solution containing test compound)/(MAR of PRP
# (§10) solution containing no test compound)]×100
# (§11) Using the above obtained platelets aggregation inhibitions (%) of each test compound at various concentrations, there was calculated a concentration (IC50) of each test compound for 50% platelets aggregation inhibition.
# [2] = test system: mongrel dogs; settings: dog, in vivo, 300 mg/kg
# Procedure: The heart rate-increasing activity and blood pressure hypotensive activity of each test compound were measured by the following method, using mongrel dogs each weighing 10-20 kg. That is, said dogs were anesthesized by intravenous injection of pentobarbital sodium, then fixed at the back, and tested under artificial respiration. The blood pressures of the dogs were measured by a blood pressure measuring transducer (P23×L manufactured by Gould Statham Instruments, Inc.) via cannula inserted into the femoral artery. The heart rates of the dogs were measured using the pulse wave of the blood pressure of each dog, via a tachometer. The signals of these testng apparatuses were recorded on a thermal pen-type recorder (Recti-Horize 8K manufactured by Nippon Denki-San-ei Sha).
# Some of the compounds obtained in the above Examples were used as test compounds. […] Then, the heart rate of each dog was measured according to the above method and a maximum change in heart rate was calculated.
# [3] = test system: platelets; experiment: Platelets aggregation inhibitory activity (method of Born et al.), collagen-induced, human PRP (Pharmacological Test I); assay type: cell-based, man; settings: 20 μg/ml collagen, 37° C., read-out: IC50 Collagen (50% platelets aggregation inhibition)
# Procedure: as §1, §2, §3, §4, §5, §6, §7, §8, §9, §10, §11
# [4] = test system: platelets; experiment: Inhibition of collagen-induced platelets adhesion, washed platelets (Pharmacological Test III); assay type: cell-based, man; settings: Platelet, 50 μg/ml collagen, human washed platelets, read-out: Inhibition (%) of collagen-induced platelets adherence
# Procedure: A blood was collected from a healthy person with normal platelets function by addition of 0.1% disodium ethylenediaminetetraacetate (EDTA.4Na) and immediately subjected to separation of a platelet rich plasma (PRP). The PRP was washed twice with a Tyrode's buffer solution (50mM TRIS, 0.1% EDTA, Ca (-), Mg (-), 0.14% BSA added, pH=7.4), and suspended in the buffer solution so that the number of platelets in the resulting suspension became 300, 000/ml, to obtain a platelets suspension (EDTA-WP). 4 mg of Type I manufactured by Sigma Co., derived from a bovine skin was dissolved in 0.25 ml of acetic acid (83.5 mM); 8 ml of distilled water was added thereto; an ultrasonic wave was applied to the mixture at 4° C. for 2 minutes; 5 ml of the supernatant liquid was separated as a collagen solution. Each test compound was dissolved in dimethylformamide (DMF) so as to give a concentration of at least […] when possible, to prepare a test compound solution. The change in turbidity of platelets suspension was recorded as a change in transmitted light emitted from a glass cell containing the suspension, using a platelets aggregation tracer manufactured by Nikoh Bioscience K.K., generally used in the test of platelets aggregation function, whereby the adherence of platelets was measured. Incidentally, in recoridng the change in transmitted light, the sensitivity of the recorder was 5 times as high as that used generally. 200 μl of the EDTA-WP was placed in a glass cell exclusively used for the above platelets aggregation tester. Further, 1 μl of the test compound solution was added. The mixture was incubated at room temperature for 5 minutes. Then, the cell was set in the platelets aggregation tracer and was allowed to stand for 1 minute until the temperature became 37° C. Thereafter, about 20 μl (50 μg/ml) of the collagen solution was added, and the adherence of platelets were measured.
# The inhibitions (%) of collagen-induced platelets adhesion by each test compound at various concentrations were calculated using the following formula.
# Inhibition (%)=[1-(platelets adherence when test compound added)/
# (platelets adherence when no test compound added)]×100
# [5] = biological target: T1, cyclic AMP phosphodiesterase (Homo sapiens, UniProt Q14432); experiment: Cyclic AMP phosphodiesterase inhibitory activity, enzyme from human platelets (Pharmacological Test IV); assay type: biochemical, man; settings: 0.4 μM cyclic AMP substrate, 30° C., 20 minutes, human platelet enzyme; read-out: IC50 (50% phosphodiesterase inhibition concentration)
# T1 construct: the resulting supernatant liquid was used as a crude enzyme solution; from tissue; host or cells: human platelets (from platelet-rich plasma)
# T1 sequence (Q14432 whole entry): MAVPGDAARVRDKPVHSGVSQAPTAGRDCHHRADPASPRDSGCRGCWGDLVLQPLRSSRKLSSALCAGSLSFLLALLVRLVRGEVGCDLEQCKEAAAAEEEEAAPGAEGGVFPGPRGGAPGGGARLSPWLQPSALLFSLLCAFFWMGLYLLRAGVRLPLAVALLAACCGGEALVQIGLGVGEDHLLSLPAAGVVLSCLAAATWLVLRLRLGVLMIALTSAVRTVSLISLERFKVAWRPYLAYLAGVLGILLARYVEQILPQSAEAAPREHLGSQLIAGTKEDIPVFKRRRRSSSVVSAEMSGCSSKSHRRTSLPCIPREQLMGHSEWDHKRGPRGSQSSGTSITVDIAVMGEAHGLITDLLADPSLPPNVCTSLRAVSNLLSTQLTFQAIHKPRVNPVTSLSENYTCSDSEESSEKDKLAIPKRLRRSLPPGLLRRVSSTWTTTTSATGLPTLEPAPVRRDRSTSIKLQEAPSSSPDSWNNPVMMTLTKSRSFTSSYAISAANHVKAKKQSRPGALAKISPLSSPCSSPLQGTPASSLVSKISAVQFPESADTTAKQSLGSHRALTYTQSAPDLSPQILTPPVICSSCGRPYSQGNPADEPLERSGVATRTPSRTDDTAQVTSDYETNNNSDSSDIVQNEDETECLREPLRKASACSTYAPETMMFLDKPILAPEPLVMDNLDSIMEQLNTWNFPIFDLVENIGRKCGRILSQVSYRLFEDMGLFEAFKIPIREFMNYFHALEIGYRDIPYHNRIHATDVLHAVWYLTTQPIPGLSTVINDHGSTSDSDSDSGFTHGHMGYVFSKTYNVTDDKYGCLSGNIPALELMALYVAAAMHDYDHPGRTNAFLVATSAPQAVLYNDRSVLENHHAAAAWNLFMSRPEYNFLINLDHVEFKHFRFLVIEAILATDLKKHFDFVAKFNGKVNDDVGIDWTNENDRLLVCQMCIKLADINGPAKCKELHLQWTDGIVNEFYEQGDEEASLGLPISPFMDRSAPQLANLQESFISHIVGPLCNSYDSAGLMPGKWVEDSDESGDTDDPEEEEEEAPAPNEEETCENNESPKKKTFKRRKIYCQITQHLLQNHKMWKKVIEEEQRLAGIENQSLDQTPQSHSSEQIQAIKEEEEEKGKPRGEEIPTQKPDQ
SMILES,"IC50 ([1]; Homo sapiens, Platelet)",Maximum change in heart rate [2],"IC50 ([3]; Homo sapiens, Platelet)",IC50 [5],further results
O=c1ccc2cc(OCCCCN(CC(O)CO)CC3CCCCC3)ccc2[nH]1 (centres unmarked) [Example 68],15 µM,30 beats/minute,7.1 µM,–,–
O=c1ccc2cc(OCCCCN(CCN3CCC(O)CC3)CC3CCCCCCC3)ccc2[nH]1 [Example 15],10 µM,1 beats/minute,–,–,IC50 [3]: 3.6 µM
O=c1ccc2cc(OCCCCN(CCN3CCC(O)CC3)CC3CCCCC3)ccc2[nH]1 [Example 23],8 µM,-2 beats/minute,9.5 µM,–,–
COC(=O)[C@@H]1C[C@@H](O)CN1CCCCOc1ccc2[nH]c(=O)ccc2c1 [Example 73],25 µM,–,6.9 µM,–,inhibition at 100 µM ([4]; dose 100 μM): 36%
O=c1ccc2cc(OCCCS(=O)(=O)N(CC(O)CO)CC3CCCCC3)ccc2[nH]1 (centres unmarked) [Example 109],4.9 µM,16 beats/minute,6.3 µM,–,–
O=c1ccc2cc(OCCCCN(CCN3CCC(O)CC3)Cc3ccccc3)ccc2[nH]1 [Example 28],–,0 beats/minute,–,480 nM,inhibition at 10 µM [4]: 48%
O=c1ccc2cc(OCCCCS(=O)(=O)N(CCN3CCC(O)CC3)Cc3ccccc3Cl)ccc2[nH]1 [Example 93],1.2 µM,–,2.6 µM,< 100 nM,–
CN(C1CCCCC1)S(=O)(=O)CCCOc1ccc2[nH]c(=O)ccc2c1 [Example 76],–,–,–,–,inhibition at 30 µM [4]: 35%
O=c1ccc2cc(OCCCCS(=O)(=O)N(CCN3CCC(O)CC3)Cc3ccccc3)ccc2[nH]1 [Example 89],7.7 µM,–,3.8 µM,< 100 nM,–
O=c1ccc2cc(OCCCCN(Cc3ccccc3)S(=O)(=O)CCN3CCC(O)CC3)ccc2[nH]1 [Example 119],20 µM,–,20 µM,–,inhibition at 10 µM [4]: 40%
O=c1ccc2cc(OCCCCN(Cc3ccccc3)S(=O)(=O)CCCn3cncn3)ccc2[nH]1 [Example 123],17 µM,–,9.5 µM,–,inhibition at 10 µM [4]: 39%
O=c1ccc2cc(OCCCCN(CCN3CCC(O)CC3)CC3CCCCCCC3)ccc2[nH]1 [Example 16],–,–,–,–,IC50 [1]: 6.3 µM; inhibition at 10 µM [4]: 48%; IC50 [3]: 7.4 µM
O=c1ccc2cc(OCCCCN(CCN3CCC(O)CC3)c3ccccc3)ccc2[nH]1 [Example 27],6.7 µM,7 beats/minute,7.7 µM,–,inhibition at 30 µM [4]: 40%
O=c1ccc2cc(OCCCCS(=O)(=O)N(CCN3CCC(O)CC3)CC3CCCCCCC3)ccc2[nH]1 [Example 79],1.3 µM,–,2.5 µM,< 100 nM,–
CN(C)C(=O)[C@@H]1CCCN1CCN(CCCCCOc1ccc2[nH]c(=O)ccc2c1)Cc1ccccc1 [Example 53],11 µM,–,13 µM,–,inhibition at 30 µM [4]: 35%
O=c1ccc2cc(OCCCCCN(Cc3ccccc3)Cc3ccccn3)ccc2[nH]1 [Example 70],40 µM,–,22 µM,< 100 nM,–
